This is an account of results in US20010031751A1, “Pharmaceuticals” (SmithKline Beecham p.l.c., priority 1997, published 2001).

What is called Kb is the affinity of an antagonist, worked out from how it opposes an agonist.

Assay [1] concerns the target T1, 5-HT4 receptor (Cavia porcellus, UniProt O70528).
T1 construct: Longitudinal muscle-myenteric plexus (LMMP) preparations, 2-3cm long, are obtained from the distal colon region; from tissue; host or cells: guinea-pig distal colon longitudinal muscle-myenteric plexus
Briefly: 5-HT4 receptor antagonist activity: 5-HT-evoked contractions of guinea-pig distal colon longitudinal muscle-myenteric plexus (LMMP) preparations. Particulars: mean ± SEM, n=7, antagonism of 5-HT dose response curve, 45 minutes incubation. As to the method:
5-HT4 RECEPTOR ANTAGONIST ACTIVITY
Male Dunkin Hartley guinea-pigs, weighing 200-300 g are used. Longitudinal muscle-myenteric plexus (LMMP) preparations, 2-3cm long, are obtained from the distal colon region. These are suspended under a 0.5 g load in isolated tissue baths containing Krebs Henseleit solution (NaCl 118 mM, KCl 4.7mM KH2PO4 1.2mM MgSO4 7H2O 1.2mM, Glucose 11.1mM, NaHCO3 25mM, CaCl2 6H2O 2.5mM) bubbled with 5% CO2 in O2, maintained at 37° C. and containing 1uM Granisetron and 0.1uM Methiothepin to block 5HT3 and 5HT1-like receptors respectively. 100uM Pargyline is also added to the tissues at the start of the experiment. Tissues are left for 15 minutes to equilibrate and then exposed to 5-HT at 0.1uM every 15 minutes until a uniform response is achieved. Following a half hour period for tissues to stabilise, non-cumulative dose response curves to 5-HT are constructed in all tissues. When base-lines have returned to normal, test compounds are added in the reservoirs of the tissue set-ups and washed in to the tissues. Tissues are incubated with the antagonists for 45 minutes after which a second non-cumulative dose response curve to 5-HT is constructed.
To test for selectivity of action, compounds are tested for their ability to antagonise cholinergically-mediated contractions of the guinea-pig colon, evoked by the nicotinic receptor agonist. […]

The subject of assay [2] is DMPP-evoked contractions of the guinea-pig colon. Briefly: Selectivity test: cholinergically-mediated contractions of guinea-pig colon evoked by the nicotinic receptor agonist DMPP. Particulars: selectivity of action. The method, then: To test for selectivity of action, compounds are tested for their ability to antagonise cholinergically-mediated contractions of the guinea-pig colon, evoked by the nicotinic receptor agonist. DMPP (1,1-dimethyl-4-phenyl-piperazinium iodide). For these experiments, tissues and equipment are set up as for the above, 5HT4 receptor experiments. After sensitization, non-cumulative dose response curves are constructed to DMPP. Test compounds are incubated with the tissues as above, and a second dose response curve to DMPP created. Results are given as mean pKB± SEM values for each antagonists.

T1 sequence (O70528 whole entry): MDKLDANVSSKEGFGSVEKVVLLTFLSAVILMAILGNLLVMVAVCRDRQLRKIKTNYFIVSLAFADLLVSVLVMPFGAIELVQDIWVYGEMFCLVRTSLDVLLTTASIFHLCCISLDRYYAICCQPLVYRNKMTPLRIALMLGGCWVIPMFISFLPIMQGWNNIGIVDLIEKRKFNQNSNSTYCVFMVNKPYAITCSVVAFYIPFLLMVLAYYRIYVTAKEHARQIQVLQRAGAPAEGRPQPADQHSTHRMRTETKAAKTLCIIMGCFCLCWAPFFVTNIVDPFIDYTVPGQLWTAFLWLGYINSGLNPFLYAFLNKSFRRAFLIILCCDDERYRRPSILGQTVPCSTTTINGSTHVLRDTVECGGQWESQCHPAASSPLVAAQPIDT

Take `CCCCN1CCC(CNC(=O)c2c3n(c4ccccc24)C(O)CCO3)CC1` (racemic) [compound of formula (I), (±)-N-[(1-butyl-4-piperidinyl)methyl]-3,4-dihydro-4-hydroxy-2H-[1,3]oxazino[3,2-a]indole-10-carboxamide]: the Kb in assay [1] was 3.39 nM. In assay [2], the “effect on DMPP-evoked contractions” value is “did not significantly affect DMPP-evoked contractions”.
